Reference: ChEMBL document CHEMBL3400063, “Novel pyrrole carboxamide inhibitors of JAK2 as potential treatment of myeloproliferative disorders” (Bioorg Med Chem, 2015)
Values after ≈ are worked out from the molar mass of the structure shown. Active and inactive are the calls of the source. No cut-off for these calls is given here.

Assays:
[1] = biological target: Tyrosine-protein kinase JAK2 (Homo sapiens, UniProt O60674); assay: Inhibition of recombinant epitope-tagged JAK2 (808 to 1132) (unknown origin) using LPLDKDYYVVREPGQ as substrate by beta-countiing analysis in presence of 33P-gamma-ATP
[2] = Cytotoxicity against human SET2 cells expressing JAK2 assessed as growth inhibition after 72 hrs by Cell Titre-Glo assay; format: functional, cell-based; settings: SET-2, 72 h
[3] = Volume of distribution at steady state in Balb nu/nu mouse at 10 mg/kg, iv by LC/MS/MS analysis; format: ADME, organism-based; parameters: dose 10 mg/kg, route intravenous; settings: in vivo, read-out: Vdss
[4] = Cytotoxicity against human DERL7 cells expressing JAK1/3 assessed as growth inhibition after 72 hrs by Cell Titre-Glo assay; format: functional, cell-based; settings: DERL7, 72 h
[5] = Clearance in Balb nu/nu mouse at 10 mg/kg, iv by LC/MS/MS analysis; format: ADME, organism-based; parameters: dose 10 mg/kg, route intravenous; settings: in vivo
[6] = Oral bioavailability in Balb nu/nu mouse at 10 mg/kg by LC/MS/MS analysis; format: ADME, organism-based; settings: in vivo
[7] = Half life in Balb nu/nu mouse at 10 mg/kg, po by LC/MS/MS analysis; format: ADME, organism-based; parameters: dose 10 mg/kg, route oral; settings: in vivo
[8] = Cmax in Balb nu/nu mouse at 10 mg/kg, iv by LC/MS/MS analysis; format: ADME, organism-based; parameters: dose 10 mg/kg, route intravenous; settings: in vivo
[9] = Solubility of the compound at pH 7; format: physicochemical; settings: buffer
[10] = AUC (infinity) in Balb nu/nu mouse at 10 mg/kg, po by LC/MS/MS analysis; format: ADME, organism-based; parameters: dose 10 mg/kg, route oral, time infinity; settings: plasma
[11] = species on record: Homo sapiens; assay: Selectivity ratio of IC50 for recombinant epitope-tagged JAK3 (781 to 1124) (unknown origin) to IC50 for recombinant epitope-tagged JAK2 (808 to 1132) (unknown origin)
[12] = AUC (infinity) in Balb nu/nu mouse at 10 mg/kg, iv by LC/MS/MS analysis; format: ADME, organism-based; parameters: time infinity, dose 10 mg/kg, route intravenous; settings: plasma
[13] = Cmax in Balb nu/nu mouse at 10 mg/kg, po by LC/MS/MS analysis; format: ADME, organism-based; parameters: dose 10 mg/kg, route oral; settings: in vivo
[14] = species on record: Homo sapiens; assay: Selectivity ratio of IC50 for recombinant epitope-tagged JAK1 (861 to 1152) (unknown origin) to IC50 for recombinant epitope-tagged JAK2 (808 to 1132) (unknown origin)
[15] = Half life in Balb nu/nu mouse at 10 mg/kg, iv by LC/MS/MS analysis; format: ADME, organism-based; parameters: dose 10 mg/kg, route intravenous; settings: in vivo
[16] = tested on: A2780; assay: Cytotoxicity against human A2780 cells expressing […] assessed as growth inhibition after 72 hrs by Cell Titre-Glo assay; format: functional, cell-based; settings: A2780, 72 h
[17] = tested on: Mus musculus; assay: In vivo inhibition of JAK2 in SCID mouse xenografted with human SET2 cells assessed as inhibition of STAT5 phosphorylation at 50 mg/kg, po up to 6 hrs; format: functional, organism-based; parameters: dose 50 mg/kg
[18] = biological target: Tyrosine-protein kinase JAK1 (Homo sapiens) (UniProt P23458); assay: Inhibition of JAK1 in human DERL7 cells assessed as inhibition of STAT5 phosphorylation after 2 hrs by SDS-PAGE analysis in presence of human IL-2; format: cell-based
[19] = tested on: Mus musculus; assay: In vivo inhibition of JAK2 in SCID mouse xenografted with human SET2 cells assessed as inhibition of STAT5 phosphorylation at 50 mg/kg, po after 3 hrs; format: functional, organism-based; parameters: dose 50 mg/kg
[20] = biological target: T1, Tyrosine-protein kinase JAK3 (Homo sapiens) (UniProt P52333); assay: Inhibition of JAK3 in human DERL7 cells assessed as inhibition of STAT5 phosphorylation after 2 hrs by SDS-PAGE analysis in presence of human IL-2; format: cell-based
T1 sequence (whole entry): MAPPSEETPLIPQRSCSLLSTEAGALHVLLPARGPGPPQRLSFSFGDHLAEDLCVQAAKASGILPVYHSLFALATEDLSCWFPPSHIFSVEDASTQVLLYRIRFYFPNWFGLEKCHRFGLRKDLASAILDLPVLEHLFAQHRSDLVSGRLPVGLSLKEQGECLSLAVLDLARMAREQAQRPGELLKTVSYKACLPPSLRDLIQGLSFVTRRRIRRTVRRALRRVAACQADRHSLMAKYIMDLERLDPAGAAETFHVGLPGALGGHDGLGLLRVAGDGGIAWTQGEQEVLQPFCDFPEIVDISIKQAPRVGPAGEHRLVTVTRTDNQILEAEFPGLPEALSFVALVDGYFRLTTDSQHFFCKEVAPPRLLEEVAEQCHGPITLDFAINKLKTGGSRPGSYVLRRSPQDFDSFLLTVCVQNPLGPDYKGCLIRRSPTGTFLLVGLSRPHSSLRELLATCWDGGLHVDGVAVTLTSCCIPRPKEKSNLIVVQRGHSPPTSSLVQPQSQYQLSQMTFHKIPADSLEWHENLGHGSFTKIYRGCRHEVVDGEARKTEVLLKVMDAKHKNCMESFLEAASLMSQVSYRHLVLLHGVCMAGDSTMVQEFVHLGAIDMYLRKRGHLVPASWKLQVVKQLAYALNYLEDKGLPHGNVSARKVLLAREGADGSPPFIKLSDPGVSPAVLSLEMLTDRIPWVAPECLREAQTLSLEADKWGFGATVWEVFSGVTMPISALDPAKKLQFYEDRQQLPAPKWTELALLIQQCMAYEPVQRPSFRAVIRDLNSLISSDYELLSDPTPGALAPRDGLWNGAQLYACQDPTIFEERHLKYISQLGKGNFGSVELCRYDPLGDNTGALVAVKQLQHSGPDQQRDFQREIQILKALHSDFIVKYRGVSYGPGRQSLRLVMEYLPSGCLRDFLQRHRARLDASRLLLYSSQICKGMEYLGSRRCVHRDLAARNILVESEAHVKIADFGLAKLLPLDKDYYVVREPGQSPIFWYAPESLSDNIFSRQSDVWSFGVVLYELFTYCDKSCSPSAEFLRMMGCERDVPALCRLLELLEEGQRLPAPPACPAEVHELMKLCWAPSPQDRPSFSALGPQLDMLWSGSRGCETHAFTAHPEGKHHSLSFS

[21] = Antitumor activity against human SET2 cells xenografted in SCID mouse assessed as tumor growth inhibition at 50 mg/kg, po bid for 10 days relative to control; format: functional; settings: SET-2, 240 h, read-out: TGI
[22] = tested on: Mus musculus; assay: Toxicity in SCID mouse xenografted with human SET2 cells assessed as body weight loss at 50 mg/kg, po bid for 10 days; format: organism-based; parameters: dose 50 mg/kg, route oral; settings: in vivo, 240 h
[23] = tested on: Mus musculus; assay: In vivo inhibition of JAK2 in SCID mouse xenografted with human SET2 cells assessed as total STAT5 level at 50 mg/kg, po after 3 hrs; format: functional, organism-based; parameters: dose 50 mg/kg
[24] = tested on: Mus musculus; assay: In vivo inhibition of JAK2 in SCID mouse xenografted with human SET2 cells assessed as total STAT5 level at 50 mg/kg, po up to 6 hrs; format: functional, organism-based; parameters: dose 50 mg/kg

Sequence of Tyrosine-protein kinase JAK2 (O60674 whole entry): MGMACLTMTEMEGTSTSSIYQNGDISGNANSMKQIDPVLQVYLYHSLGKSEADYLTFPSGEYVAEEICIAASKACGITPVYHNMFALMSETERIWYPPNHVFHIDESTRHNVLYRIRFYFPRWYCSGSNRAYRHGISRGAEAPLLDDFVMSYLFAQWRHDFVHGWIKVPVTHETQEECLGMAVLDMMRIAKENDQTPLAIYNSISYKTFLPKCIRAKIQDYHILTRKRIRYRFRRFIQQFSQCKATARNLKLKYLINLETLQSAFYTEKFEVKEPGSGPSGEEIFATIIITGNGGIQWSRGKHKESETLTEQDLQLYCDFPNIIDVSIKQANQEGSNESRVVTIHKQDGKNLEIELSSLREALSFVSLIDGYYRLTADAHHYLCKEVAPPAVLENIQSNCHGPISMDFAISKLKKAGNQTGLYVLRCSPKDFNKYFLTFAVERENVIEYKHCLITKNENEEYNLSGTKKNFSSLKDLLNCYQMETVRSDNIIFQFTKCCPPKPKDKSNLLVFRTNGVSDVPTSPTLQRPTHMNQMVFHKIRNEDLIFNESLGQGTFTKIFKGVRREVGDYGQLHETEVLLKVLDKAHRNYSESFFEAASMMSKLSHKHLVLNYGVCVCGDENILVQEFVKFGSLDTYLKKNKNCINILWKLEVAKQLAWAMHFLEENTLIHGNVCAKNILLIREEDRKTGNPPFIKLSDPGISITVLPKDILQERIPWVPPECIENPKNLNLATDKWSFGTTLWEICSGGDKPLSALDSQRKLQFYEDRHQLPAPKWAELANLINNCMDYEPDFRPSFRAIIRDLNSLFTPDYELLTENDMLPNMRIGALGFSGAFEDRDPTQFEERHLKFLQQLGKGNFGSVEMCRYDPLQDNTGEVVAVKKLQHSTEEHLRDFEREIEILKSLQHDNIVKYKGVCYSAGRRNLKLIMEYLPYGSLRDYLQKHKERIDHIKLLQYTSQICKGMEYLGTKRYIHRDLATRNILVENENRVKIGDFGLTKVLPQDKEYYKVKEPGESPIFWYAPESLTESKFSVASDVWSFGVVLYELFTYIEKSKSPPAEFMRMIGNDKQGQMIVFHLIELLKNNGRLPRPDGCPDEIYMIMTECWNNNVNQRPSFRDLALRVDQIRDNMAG
Sequence of Tyrosine-protein kinase JAK1 (Homo sapiens) (P23458 whole entry): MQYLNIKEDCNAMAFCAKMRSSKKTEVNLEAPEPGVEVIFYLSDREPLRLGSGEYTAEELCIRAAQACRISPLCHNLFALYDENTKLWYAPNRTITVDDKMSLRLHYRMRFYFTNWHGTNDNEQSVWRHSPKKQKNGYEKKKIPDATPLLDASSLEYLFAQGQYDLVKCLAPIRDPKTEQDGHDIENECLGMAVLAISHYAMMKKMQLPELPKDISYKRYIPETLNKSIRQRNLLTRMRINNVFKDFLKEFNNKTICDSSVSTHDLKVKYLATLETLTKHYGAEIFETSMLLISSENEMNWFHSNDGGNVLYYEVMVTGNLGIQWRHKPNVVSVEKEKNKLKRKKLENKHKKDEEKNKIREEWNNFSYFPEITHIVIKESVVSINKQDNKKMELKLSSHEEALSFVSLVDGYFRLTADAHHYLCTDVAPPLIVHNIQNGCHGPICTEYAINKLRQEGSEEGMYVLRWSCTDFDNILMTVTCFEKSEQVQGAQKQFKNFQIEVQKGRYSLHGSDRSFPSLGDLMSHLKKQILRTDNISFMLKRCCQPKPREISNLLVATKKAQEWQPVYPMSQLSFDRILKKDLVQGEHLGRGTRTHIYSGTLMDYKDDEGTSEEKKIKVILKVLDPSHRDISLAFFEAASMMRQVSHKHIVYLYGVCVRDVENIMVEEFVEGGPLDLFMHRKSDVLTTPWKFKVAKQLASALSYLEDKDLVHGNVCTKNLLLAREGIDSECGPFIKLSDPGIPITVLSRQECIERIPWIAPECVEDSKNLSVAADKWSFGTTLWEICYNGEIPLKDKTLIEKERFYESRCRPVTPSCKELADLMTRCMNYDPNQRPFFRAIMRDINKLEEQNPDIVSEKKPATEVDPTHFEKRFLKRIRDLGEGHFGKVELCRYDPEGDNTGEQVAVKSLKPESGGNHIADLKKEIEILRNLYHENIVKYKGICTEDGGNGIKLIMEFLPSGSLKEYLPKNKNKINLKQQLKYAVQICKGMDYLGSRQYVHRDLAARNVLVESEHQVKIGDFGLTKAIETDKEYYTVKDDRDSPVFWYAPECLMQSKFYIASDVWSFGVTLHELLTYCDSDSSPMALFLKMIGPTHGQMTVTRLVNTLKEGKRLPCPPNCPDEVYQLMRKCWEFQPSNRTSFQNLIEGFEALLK

CNc1cc(-c2cc(C(N)=O)n(-c3cc(Cl)ccc3C)c2)ncn1
IC50 [1]: 131 nM

Cc1ccc(Cl)cc1-c1cn(-c2cc(N)ncn2)cc1C(N)=O
IC50 [1]: 369 nM

Cc1ccc(Cl)cc1-c1cc(-c2cc(N)ncn2)[nH]c1C(N)=O
IC50 [1]: 690 nM

NC(=O)c1cc(-c2cc(N)ncn2)cn1-c1cc(C(F)(F)F)ccc1Cl
IC50 [2]: 1570 nM

CNc1cc(-c2cc(C(N)=O)n(-c3cc(C(F)(F)F)ccc3Cl)c2)ncn1
IC50 [1]: 331 nM

Cc1ccc(Cl)cc1-c1ccc(-c2ccnc(N)n2)[nH]1
IC50 [1]: 972 nM

Cc1ccc(Cl)cc1-n1cc(-c2ccnc(N)n2)cc1C(N)=O
IC50 [1]: 216 nM

CCc1ccc(Cl)cc1-n1cc(-c2ncnn3cccc23)cc1C(N)=O
Vd [3]: 5.8 L/kg
IC50 [4]: 2140 nM
clearance [5]: 51 mL/min/kg
bioavailability [6]: 1%
half-life [7]: 3.7 h
Cmax [8]: 12.4 µM
solubility [9]: 25 µM (≈ 9.15 µg/mL)
AUC(0-inf) [10]: 0.07 µM·h
Ratio IC50 [11]: 15
AUC(0-inf) [12]: 8.4 µM·h
Cmax [13]: 0.04 µM
IC50 [2]: 660 nM
Ratio IC50 [14]: 7
half-life [15]: 5.5 h
IC50 [16]: > 10000 nM

Cc1ccc(Cl)cc1-n1cc(-c2ccnc(N)n2)cn1
IC50 [1]: 950 nM

CCc1ccc(Cl)cc1-c1cc(-c2ncnc3[nH]ccc23)[nH]c1C(N)=O
IC50 [4]: 1100 nM
Ratio IC50 [11]: 7
IC50 [1]: 3 nM
IC50 [2]: 320 nM
Ratio IC50 [14]: 6
IC50 [16]: 1600 nM

Cc1ccc(Cl)cc1-n1cc(-c2ncnc3[nH]ccc23)cc1C(N)=O
Vd [3]: 0.7 L/kg
IC50 [4]: 460 nM
clearance [5]: 17 mL/min/kg
bioavailability [6]: 8%
half-life [7]: 3 h
Cmax [8]: 51 µM
solubility [9]: 40 µM (≈ 14.1 µg/mL)
AUC(0-inf) [10]: 1.6 µM·h
Ratio IC50 [11]: 5
AUC(0-inf) [12]: 26.2 µM·h
Cmax [13]: 0.69 µM
IC50 [2]: 80 nM
Ratio IC50 [14]: 3
half-life [15]: 5 h
IC50 [16]: 7400 nM

Cc1ccc(Cl)cc1-c1cn(-c2ccnc(N)n2)cc1C(N)=O
IC50 [1]: 220 nM

CCc1ccc(Cl)cc1-n1cc(-c2cc(NC)ncn2)cc1C(N)=O
Vd [3]: 1.4 L/kg
IC50 [4]: 1720 nM
clearance [5]: 12 mL/min/kg
bioavailability [6]: 9%
half-life [7]: 2.4 h
Cmax [8]: 32 µM
solubility [9]: 111 µM (≈ 39.5 µg/mL)
AUC(0-inf) [10]: 2.9 µM·h
Ratio IC50 [11]: 11
AUC(0-inf) [12]: 37.4 µM·h
Cmax [13]: 1.6 µM
IC50 [2]: 500 nM
Ratio IC50 [14]: 9
half-life [15]: 5.4 h
IC50 [16]: > 10000 nM

Cc1ccc(Cl)cc1-c1cc(-c2ncnc3[nH]ccc23)[nH]c1C(N)=O
IC50 [4]: 7300 nM
solubility [9]: 3 µM (≈ 1.06 µg/mL)
Ratio IC50 [11]: 6
IC50 [1]: 9 nM
IC50 [2]: 460 nM
Ratio IC50 [14]: 5
IC50 [16]: 9400 nM

Cc1ccc(Cl)cc1-c1cn(-c2ncnn3cccc23)cc1C(N)=O
IC50 [1]: 2910 nM

CCc1ccc(Cl)cc1-n1cc(-c2ncnc3[nH]ccc23)cc1C(N)=O
IC50 [4]: 20 nM
IC50 [2]: 30 nM
IC50 [16]: > 5000 nM

CNc1cc(-n2cc(C(N)=O)c(-c3cc(Cl)ccc3C)c2)ncn1
IC50 [1]: 620 nM

Cc1ccc(Cl)cc1-c1ncc(-c2ccnc(N)n2)[nH]1
IC50 [1]: 1070 nM

Cc1ccc(Cl)cc1-n1nc(-c2ccnc(N)n2)cc1C(N)=O
IC50 [1]: > 10000 nM

CCc1ccc(Cl)cc1-n1cc(-c2cc(N)ncn2)cc1C(N)=O
Vd [3]: 0.6 L/kg
IC50 [4]: 2730 nM
clearance [5]: 8.3 mL/min/kg
bioavailability [6]: 50%
inhibition [17]: Active
inhibition [18]: Active
inhibition [19]: Active
inhibition [20]: Active
half-life [7]: 2.6 h
Cmax [8]: 45.9 µM
inhibition in vivo at 50 mg/kg [21]: 41%
solubility [9]: 128 µM (≈ 43.8 µg/mL)
AUC(0-inf) [10]: 21 µM·h
Activity [22]: Non-toxic
inhibition [23]: inactive
AUC(0-inf) [12]: 49.2 µM·h
Cmax [13]: 12.5 µM
half-life [15]: 2 h
inhibition [24]: inactive

Cc1ccc(Cl)cc1-c1[nH]c(-c2ccnc(N)n2)cc1C(N)=O
IC50 [4]: 740 nM
IC50 [2]: 430 nM

Cc1ccc(Cl)cc1-n1cc(-c2ncnn3cccc23)cc1C(N)=O
IC50 [2]: 1920 nM

Cc1ccc(Cl)cc1-c1cn(-c2ncnc3[nH]ccc23)cc1C(N)=O
IC50 [4]: > 10000 nM
solubility [9]: 2 µM (≈ 0.704 µg/mL)
Ratio IC50 [11]: 14
IC50 [1]: 16 nM
IC50 [2]: 500 nM
Ratio IC50 [14]: 5
IC50 [16]: > 10000 nM

NC(=O)c1cc(-c2ncnc3[nH]ccc23)cn1-c1cc(C(F)(F)F)ccc1Cl
IC50 [4]: 150 nM
Ratio IC50 [11]: 4
IC50 [2]: 60 nM
Ratio IC50 [14]: 4
IC50 [16]: > 10000 nM
